Data reported in patent US12552771B2, “Carboxylic acid containing azetidinyl compounds for the treatment of neurodegenerative diseases” (Celgene Corporation, priority 2021, dated 2026).
Structures can show the parent of a compound that is named as a salt.

Target: T1, S1P5 receptors (Homo sapiens, UniProt Q9H228)
T1 construct: expressed in transfected cells; host or cells: CHO cells (membranes)
Assay: [35S]-GTPγS binding assay with CHO-S1P5 receptor membranes
Type: biochemical
Conditions: membranes of CHO cells expressing recombinant S1P5 receptors; measure of S1P5 agonism
Protocol: CHO cells expressing recombinant S1P5 receptors were cultured in 500 cm^2 culture trays and, once confluent, rinsed and detached with cell-lifting buffer (10 mM HEPES, 154 mM NaCl, 6.85 mM EDTA, pH 7.4). Cells were then pelleted by centrifugation, resuspended, and homogenized in membrane preparation buffer (10 mM HEPES and 10 mM EDTA, pH 7.4) using a Polytron PT 1200E homogenizer (Kinematica, Luzern, Switzerland). Cellular proteins were pelleted by centrifugation at 48,000×g at 4° C. for 30 minutes. The resulting supernatant was discarded, and the pellet was re-suspended again in membrane preparation buffer, homogenized for a second time, and then centrifuged again as described above. The final cellular protein pellet was suspended in ice cold resuspension buffer (10 mM HEPES and 0.1 mM EDTA, pH 7.4), divided into aliquots, and stored at −80° C. until use.
Functional binding assays for [^35]-GTPγS were performed in 96-well non-binding surface plates with a final volume of 200 μL. The test compounds were serially diluted in DMSO and added to assay plates using a Tecan D300E digital printer with a total volume of […]. The control sphingosine-1-phosphate (SiP) was prepared separately by preparing a 400 μM stock solution from a 100 nmol pellet of SiP in 10 mM Na2CO3 with 2% […]. The serial dilution of SiP was done using complete assay buffer (20 mM HEPES, 10 mM MgCl2, 100 mM NaCl, 1 mM EDTA, 0.1% fatty acid free bovine serum albumin (BSA), and 30 μg/mL saponin, pH 7.4) and transferred to wells already containing 0.4 μL DMSO. All the wells were then loaded to a total volume of 40 μL of complete assay buffer, except the non-specific binding (NSB) wells. For NSB wells, 40 μL/well of 50 μM GTPγS (Sigma Aldrich, cat #G8634, St. Louis, MO) was added to wells containing 0.4 μL of DMSO. The assay was started by the addition of 120 μL/well of CHO-S1P receptor membrane solution containing 40 μg/mL of membrane protein, 16.67 μM guanosine diphosphate (GDP; Sigma Aldrich, cat #G7127, St. Louis, MO), and 2.5 mg/mL of WGA PVT SPA beads in complete buffer. Assay plates were then sealed and incubated at room temperature with gentle agitation for 30 minutes. Next, 40 μL/well of 1 nM of [^35]-GTPγS (PerkinElmer, cat #NEG030X250UC, Waltham, MA) in basic assay buffer (20 mM HEPES, 10 mM MgCl2, 100 mM NaCl, and 1 mM EDTA, pH7.4) was added to the assay plates to yield a final concentration of 200 pM and the plates were further incubated for 40 minutes at room temperature with gentle agitation. The assay was terminated by centrifugation of the plates at 1000 rpm for 3 minutes using an Eppendorf 5810R centrifuge (Eppendorf, Hamburg, Germany) and G protein bound radioactivity was quantitated using a MicroBeta2 microplate scintillation counter (PerkinElmer, Waltham, MA). As G protein bound radioactivity directly correlates to receptor activation and coupling to the G protein, this assay is a measure of S1P5 agonism.

T1 sequence (Q9H228 whole entry): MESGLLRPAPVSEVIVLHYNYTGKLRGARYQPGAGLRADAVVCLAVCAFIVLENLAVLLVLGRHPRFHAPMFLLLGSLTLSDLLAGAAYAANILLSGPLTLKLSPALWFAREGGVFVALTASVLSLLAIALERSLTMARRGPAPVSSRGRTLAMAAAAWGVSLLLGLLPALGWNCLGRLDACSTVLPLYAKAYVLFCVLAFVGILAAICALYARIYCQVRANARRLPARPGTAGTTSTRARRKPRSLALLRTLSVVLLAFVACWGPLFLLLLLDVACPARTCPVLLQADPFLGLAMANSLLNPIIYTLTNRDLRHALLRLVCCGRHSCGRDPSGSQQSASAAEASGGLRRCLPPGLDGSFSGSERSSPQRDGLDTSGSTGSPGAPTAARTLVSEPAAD

| Compound | EC50 |
| --- | --- |
| Cc1cc(N2CC(c3c(Cl)cccc3Cl)C2)cc(C)c1CN1CCC(C(=O)O)CC1 [Compound 28, 1-(4-(3-(2,6-dichlorophenyl)azetidin-1-yl)-2,6-dimethylbenzyl)piperidine-4-carboxylic acid] | ≤ 10 nM |
| Cc1cc(CN2CCC(C(=O)O)CC2)cc(C)c1N1CC(F)(c2c(Cl)cccc2Cl)C1 [Compound 36, 1-(4-(3-(2,6-dichlorophenyl)-3-fluoroazetidin-1-yl)-3,5-dimethylbenzyl)-piperidine-4-carboxylic acid] | 10 to 100 nM |
| O=C(O)C1CCN(Cc2ccc(C3CN(c4c(Cl)cccc4Cl)C3)cc2C2CC2)CC1 [Compound 56, 1-(2-cyclopropyl-4-(1-(2,6-dichlorophenyl)azetidin-3-yl)benzyl)piperidine-4-carboxylic acid] | ≤ 10 nM |
| Cc1cc(C2CN(c3c(Cl)cccc3Cl)C2)cc(C2CC2)c1CN1CCC(C(=O)O)CC1 [Compound 57, 1-(2-cyclopropyl-4-(1-(2,6-dichlorophenyl)azetidin-3-yl)-6-methylbenzyl)-piperidine-4-carboxylic acid] | ≤ 10 nM |
| O=C(O)C1CCN(Cc2ccc(C3CN(c4c(Cl)cccc4Cl)C3)c(F)c2)CC1 [Compound 22, 1-(4-(1-(2,6-dichlorophenyl)azetidin-3-yl)-3-fluorobenzyl)piperidine-4-carboxylic acid] | ≤ 10 nM |
| Cc1cc(C2CN(c3ccccc3)C2)cc(C)c1CN1CCC(C(=O)O)CC1 [Compound 45, 1-(2,6-dimethyl-4-(1-phenylazetidin-3-yl)benzyl)piperidine-4-carboxylic acid] | 100 to 1000 nM |
| O=C(O)C1CCN(C2CCc3cc(C4CN(c5c(Cl)cccc5Cl)C4)ccc32)CC1 (single isomer, unassigned) [Compound 1a, 1-(5-(1-(2,6-dichlorophenyl)azetidin-3-yl)-2,3-dihydro-1H-inden-1-yl)piperidine-4-carboxylic acid] | ≤ 10 nM |
| Cc1cc(C2CN(c3c(Cl)cccc3Cl)C2)cc(F)c1CN1CCC(C(=O)O)CC1 [Compound 50, 1-(4-(1-(2,6-dichlorophenyl)azetidin-3-yl)-2-fluoro-6-methylbenzyl)-piperidine-4-carboxylic acid] | ≤ 10 nM |
| O=C(O)C1CCN(Cc2ccc(N3CC(c4c(Cl)cccc4Cl)C3)cn2)CC1 [Compound 29, 1-((5-(3-(2,6-dichlorophenyl)azetidin-1-yl)pyridin-2-yl)methyl)piperidine-4-carboxylic acid] | 10 to 100 nM |
| O=C(O)C1CCN(Cc2ccc(C3CN(c4ccccc4F)C3)cc2)CC1 [Compound 40, 1-(4-(1-(2-fluorophenyl)azetidin-3-yl)benzyl)piperidine-4-carboxylic acid] | 100 to 1000 nM |
| Cc1cc(C2CN(c3c(Cl)cccc3Cl)C2)cc(Cl)c1CN1CCC(C(=O)O)CC1 [Compound 51, 1-(2-chloro-4-(1-(2,6-dichlorophenyl)azetidin-3-yl)-6-methylbenzyl)-piperidine-4-carboxylic acid] | ≤ 10 nM |
| Cc1cc(C2CN(c3c(Cl)cccc3Cl)C2)cc(C)c1CN1CC[C@H](C(=O)O)C1 [Compound 62, (S)-1-(4-(1-(2,6-dichlorophenyl)azetidin-3-yl)-2,6-dimethylbenzyl)-pyrrolidine-3-carboxylic acid] | ≤ 10 nM |
| O=C(O)[C@@H]1CCN(Cc2ccc(C3CN(c4c(Cl)cccc4Cl)C3)cc2)C1 [Compound 12b, (R)-1-(4-(1-(2,6-dichlorophenyl)azetidin-3-yl)benzyl)pyrrolidine-3-carboxylic acid] | ≤ 10 nM |
| Cc1cc(C2CN(c3c(C)cccc3C3CC3)C2)cc(C)c1CN1CCC(C(=O)O)CC1 [Compound 71, 1-(4-(1-(2-cyclopropyl-6-methylphenyl)azetidin-3-yl)-2,6-dimethylbenzyl)-piperidine-4-carboxylic acid] | ≤ 10 nM |
| O=C(O)C1CCN(Cc2ccc(C3CN(c4c(Cl)cccc4Cl)C3)cn2)CC1 [Compound 18, 1-((5-(1-(2,6-dichlorophenyl)azetidin-3-yl)pyridin-2-yl)methyl)piperidine-4-carboxylic acid] | 100 to 1000 nM |
| Cc1cc(C(C)(C)N2CCC(C(=O)O)CC2)cc(C)c1C1CN(c2c(Cl)cccc2Cl)C1 [Compound 86, 1-(2-(4-(1-(2,6-dichlorophenyl)azetidin-3-yl)-3,5-dimethylphenyl)propan-2-yl)piperidine-4-carboxylic acid] | ≤ 10 nM |
| Cc1cc(C2CN(c3c(Cl)cccc3Cl)C2)ccc1C(C)N1CCC(C(=O)O)CC1 (single isomer, unassigned) [Compound 16a, 1-(1-(4-(1-(2,6-dichlorophenyl)azetidin-3-yl)-2-methylphenyl)ethyl)piperidine-4-carboxylic acid] | 10 to 100 nM |
| Cc1cc(C2CN(c3c(Cl)cccc3Cl)C2)cc(C)c1CN1CCC(C)(C(=O)O)CC1 [Compound 90, 1-(4-(1-(2,6-dichlorophenyl)azetidin-3-yl)-2,6-dimethylbenzyl)-4-methyl-piperidine-4-carboxylic acid, formic acid salt] | ≤ 10 nM |
| O=C(O)C1CCN(C2CCc3cc(C4CN(c5ccccc5F)C4)ccc32)CC1 (single isomer, unassigned) [Compound 4a, 1-(5-(1-(2-fluorophenyl)azetidin-3-yl)-2,3-dihydro-1H-inden-1-yl)piperidine-4-carboxylic acid] | 10 to 100 nM |
| O=C(O)C1CCN(Cc2ccc(N3CC(c4c(F)cccc4F)C3)cc2)CC1 [Compound 27, 1-(4-(3-(2,6-difluorophenyl)azetidin-1-yl)benzyl)piperidine-4-carboxylic acid] | 100 to 1000 nM |
| Cc1cc(C2CN(c3c(Cl)cccc3Cl)C2)cc(C)c1CN1CCC(C(=O)O)CC1 [Compound 15, 1-(4-(1-(2,6-dichlorophenyl)azetidin-3-yl)-2,6-dimethylbenzyl)piperidine-4-carboxylic acid] | ≤ 10 nM |
| CC(C)(c1ccc(C2CN(c3c(Cl)cccc3Cl)C2)cc1)N1CCC(C(=O)O)CC1 [Compound 17, 1-(2-(4-(1-(2,6-dichlorophenyl)azetidin-3-yl)phenyl)propan-2-yl)piperidine-4-carboxylic acid] | ≤ 10 nM |
| Cc1cc(C2CN(c3c(Cl)cccc3Cl)C2)c(C)cc1CN1CCC(C(=O)O)CC1 [Compound 19, 1-(4-(1-(2,6-dichlorophenyl)azetidin-3-yl)-2,5-dimethylbenzyl)piperidine-4-carboxylic acid] | ≤ 10 nM |
| O=C(O)C1CCN(C2CCc3cc(C4CN(c5c(Cl)cccc5Cl)C4)ccc32)CC1 (single isomer, unassigned) [Compound 1b, 1-(5-(1-(2,6-dichlorophenyl)azetidin-3-yl)-2,3-dihydro-1H-inden-1-yl)piperidine-4-carboxylic acid] | 100 to 1000 nM |
| O=C(O)C1CCN(Cc2ccc(C3CN(c4ccc(C5CC5)c(Cl)c4)C3)cc2)CC1 [Compound 42, 1-(4-(1-(3-chloro-4-cyclopropylphenyl)azetidin-3-yl)benzyl)piperidine-4-carboxylic acid] | 100 to 1000 nM |
| Cc1cc(CN2CCC(C(=O)O)CC2)cc(C)c1N1CC(c2c(Cl)cccc2Cl)C1 [Compound 31, 1-(4-(3-(2,6-dichlorophenyl)azetidin-1-yl)-3,5-dimethylbenzyl)piperidine-4-carboxylic acid] | ≤ 10 nM |
| O=C(O)C1CCN(Cc2ccc(N3CC(c4c(Cl)cccc4Cl)C3)c(F)c2)CC1 [Compound 34, 1-(4-(3-(2,6-dichlorophenyl)azetidin-1-yl)-3-fluorobenzyl)piperidine-4-carboxylic acid] | ≤ 10 nM |
| CCc1cccc(C)c1N1CC(c2cc(C)c(CN3CCC(C(=O)O)CC3)c(C)c2)C1 [Compound 68, 1-(4-(1-(2-ethyl-6-methylphenyl)azetidin-3-yl)-2,6-dimethylbenzyl)-piperidine-4-carboxylic acid] | ≤ 10 nM |
| O=C(O)C1CCN(C2CCc3cc(C4CN(c5cccc(F)c5)C4)ccc32)CC1 (single isomer, unassigned) [Compound 3b, 1-(5-(1-(3-fluorophenyl)azetidin-3-yl)-2,3-dihydro-1H-inden-1-yl)piperidine-4-carboxylic acid] | 1000 to 10000 nM |
